From patent publication EP4745135A1 (Gluetacs Therapeutics (Shanghai) Co., Ltd., priority 2023, dated 2025)

How the values were obtained:
[1] = test system: Human gastric cancer cell line: MGC803; assay: Tumor cell proliferation inhibition (CellTiter-Meiluncell luminescent cell viability assay); settings: MGC-803, read-out: Inhibitory activity (IC50, nM) on tumor cell proliferation, MGC803
Protocol: (§1) The IC50 values of the compounds of the present disclosure (including the compounds in Table 1 and Examples) were determined using the CellTiter-Meiluncell Luminescent Cell Viability Assay Kit from Dalian Meilun Biotech Co., Ltd. The detailed procedure is as follows: Tumor cells were seeded in 96-well cell culture plates at the densities specified in Table 3. On the following day, the test compounds of the present disclosure were subjected to serial dilution. The dilution can be performed according to one of the following two methods: • (1) The first dilution method: The test compounds of the present disclosure (including the compounds in Table 1 and Examples) were subjected to 5-fold serial dilutions starting from a highest concentration of 2000 µM, resulting in a total of 9 concentrations from high to low (2000, 400, 80, 16, 3.2, 0.64, 0.128, 0.0256, 0.00512 µM). Subsequently, 0.5 µL of the test compound dilution was transferred into the 96-well plate containing the cells, with each well containing 100 µL of cell culture medium. […] Into the 96-well plate, the diluted test compounds and corresponding detection reagents were added, resulting in final test compound concentrations of 500 nM and 10 nM, respectively. The experimental procedure is described below using the diluted 2 µM test compound as an example.
(§2) 0.5 µL of the aforementioned diluted compound of the present disclosure (including the compounds in Table 1 and Examples) was added to the seeded cells in 100 µL of medium, yielding a final test compound concentration of 10 nM. After the cells were treated with the compounds of the present disclosure for a specified period, the cell viability assay reagent was added to the culture medium according to the kit's instructions to determine cell viability. […] All controls were treated using the same procedure as the compounds of the present disclosure. The growth inhibition curves for the compounds of the present disclosure were plotted using Prism GraphPad software, and the IC50 values were calculated therefrom.

IKZF1 = biological target: T1, IKZF1 (Homo sapiens, UniProt Q13422+Q96SW2); assay: Western blot, degradation of substrate protein in hPBMCs; assay type: cell-based; settings: Western blot, 24 hours of compound treatment, compounds tested at 50 nM and 500 nM (concentration for the table not stated)
T1 construct: effects of the compounds of the present disclosure on the expression of target proteins in cells; endogenous in cells; host or cells: human PBMCs (Milecell Biotechnologies)
T1 sequence (Q13422 whole entry): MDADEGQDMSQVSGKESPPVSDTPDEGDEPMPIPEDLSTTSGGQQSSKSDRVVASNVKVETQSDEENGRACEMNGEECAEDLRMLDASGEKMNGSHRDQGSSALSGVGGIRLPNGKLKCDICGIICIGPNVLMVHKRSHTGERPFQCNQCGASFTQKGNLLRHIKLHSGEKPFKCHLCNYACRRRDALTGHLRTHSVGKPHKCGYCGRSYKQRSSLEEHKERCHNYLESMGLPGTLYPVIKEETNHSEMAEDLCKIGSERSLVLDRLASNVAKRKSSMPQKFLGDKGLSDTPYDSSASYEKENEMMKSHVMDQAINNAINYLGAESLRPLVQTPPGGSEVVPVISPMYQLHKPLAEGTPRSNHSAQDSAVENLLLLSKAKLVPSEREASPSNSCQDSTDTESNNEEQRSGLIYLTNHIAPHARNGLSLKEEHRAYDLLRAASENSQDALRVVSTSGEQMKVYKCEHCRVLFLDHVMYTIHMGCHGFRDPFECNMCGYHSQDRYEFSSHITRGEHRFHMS
T1 sequence (Q96SW2 whole entry): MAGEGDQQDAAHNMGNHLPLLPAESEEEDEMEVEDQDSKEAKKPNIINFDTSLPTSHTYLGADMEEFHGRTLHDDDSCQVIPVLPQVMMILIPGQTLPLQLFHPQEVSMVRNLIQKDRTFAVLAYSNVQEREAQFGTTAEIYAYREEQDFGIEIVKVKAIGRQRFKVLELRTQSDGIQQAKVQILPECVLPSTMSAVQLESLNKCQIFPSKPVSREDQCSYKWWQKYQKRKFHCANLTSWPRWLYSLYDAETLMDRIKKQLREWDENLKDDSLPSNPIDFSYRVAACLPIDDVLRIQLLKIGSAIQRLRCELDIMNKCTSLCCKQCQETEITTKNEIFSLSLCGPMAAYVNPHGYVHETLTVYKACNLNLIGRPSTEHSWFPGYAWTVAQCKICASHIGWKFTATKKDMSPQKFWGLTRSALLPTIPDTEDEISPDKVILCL
T1 sequence (Q16531 whole entry partner): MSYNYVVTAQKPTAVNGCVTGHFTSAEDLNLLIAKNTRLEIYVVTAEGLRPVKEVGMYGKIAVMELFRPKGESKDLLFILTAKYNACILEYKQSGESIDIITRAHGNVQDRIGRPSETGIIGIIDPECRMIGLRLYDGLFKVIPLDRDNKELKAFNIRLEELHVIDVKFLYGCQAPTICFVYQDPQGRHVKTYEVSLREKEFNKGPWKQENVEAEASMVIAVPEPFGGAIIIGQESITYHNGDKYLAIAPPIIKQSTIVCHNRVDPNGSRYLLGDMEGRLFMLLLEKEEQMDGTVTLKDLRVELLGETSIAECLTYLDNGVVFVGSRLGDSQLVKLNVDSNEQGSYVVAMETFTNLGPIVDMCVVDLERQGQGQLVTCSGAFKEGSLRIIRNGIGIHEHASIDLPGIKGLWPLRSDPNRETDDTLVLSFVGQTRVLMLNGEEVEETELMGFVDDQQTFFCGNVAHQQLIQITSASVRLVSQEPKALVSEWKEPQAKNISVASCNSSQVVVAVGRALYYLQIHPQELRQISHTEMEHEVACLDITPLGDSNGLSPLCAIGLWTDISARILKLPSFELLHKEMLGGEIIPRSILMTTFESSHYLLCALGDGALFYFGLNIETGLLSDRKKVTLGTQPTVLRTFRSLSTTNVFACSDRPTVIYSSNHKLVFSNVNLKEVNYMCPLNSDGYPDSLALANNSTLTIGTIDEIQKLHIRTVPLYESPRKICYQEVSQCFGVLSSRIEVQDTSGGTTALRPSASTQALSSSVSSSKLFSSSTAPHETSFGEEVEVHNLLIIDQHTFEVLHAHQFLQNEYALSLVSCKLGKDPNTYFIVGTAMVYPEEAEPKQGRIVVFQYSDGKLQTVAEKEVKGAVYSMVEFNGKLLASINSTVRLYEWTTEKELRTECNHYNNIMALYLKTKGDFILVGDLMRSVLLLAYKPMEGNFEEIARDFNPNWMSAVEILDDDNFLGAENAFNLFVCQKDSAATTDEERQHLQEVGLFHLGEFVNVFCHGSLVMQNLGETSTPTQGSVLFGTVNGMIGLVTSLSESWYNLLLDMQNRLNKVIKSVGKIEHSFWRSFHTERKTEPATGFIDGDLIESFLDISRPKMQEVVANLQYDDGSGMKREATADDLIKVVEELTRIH

IKZF2 = biological target: T2, IKZF2 (Homo sapiens, UniProt Q96SW2+Q9UKS7); assay: as above; assay type: cell-based; settings: Western blot, 24 hours of compound treatment, compounds tested at 50 nM and 500 nM (concentration for the table not stated)
T2 construct: effects of the compounds of the present disclosure on the expression of target proteins in cells; endogenous in cells; host or cells: human PBMCs (Milecell Biotechnologies)
T2 sequence (Q9UKS7 whole entry): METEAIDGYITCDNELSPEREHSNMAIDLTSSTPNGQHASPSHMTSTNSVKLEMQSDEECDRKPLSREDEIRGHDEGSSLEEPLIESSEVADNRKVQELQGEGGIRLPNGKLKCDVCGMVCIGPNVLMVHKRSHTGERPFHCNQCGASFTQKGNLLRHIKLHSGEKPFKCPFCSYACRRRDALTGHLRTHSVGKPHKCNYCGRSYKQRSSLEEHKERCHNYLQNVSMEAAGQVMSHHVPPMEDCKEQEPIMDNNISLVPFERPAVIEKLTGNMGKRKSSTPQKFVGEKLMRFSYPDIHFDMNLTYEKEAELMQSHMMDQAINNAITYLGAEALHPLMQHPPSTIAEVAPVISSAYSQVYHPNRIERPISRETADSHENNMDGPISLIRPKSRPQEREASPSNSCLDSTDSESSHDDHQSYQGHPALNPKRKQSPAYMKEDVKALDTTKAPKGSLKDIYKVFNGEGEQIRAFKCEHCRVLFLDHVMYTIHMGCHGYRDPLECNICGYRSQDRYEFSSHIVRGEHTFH
T2 sequence (Q96SW2 whole entry): as the sequence (Q96SW2 whole entry) above
T2 sequence (Q16531 whole entry partner): as the sequence (Q16531 whole entry partner) above

WEE1 = biological target: T3, WEE1 (Homo sapiens, UniProt P30291+Q96SW2); assay: as above; assay type: cell-based; settings: Western blot, 24 hours of compound treatment, compounds tested at 50 nM and 500 nM (concentration for the table not stated)
T3 construct: effects of the compounds of the present disclosure on the expression of target proteins in cells; endogenous in cells; host or cells: human PBMCs (Milecell Biotechnologies)
T3 sequence (P30291 whole entry): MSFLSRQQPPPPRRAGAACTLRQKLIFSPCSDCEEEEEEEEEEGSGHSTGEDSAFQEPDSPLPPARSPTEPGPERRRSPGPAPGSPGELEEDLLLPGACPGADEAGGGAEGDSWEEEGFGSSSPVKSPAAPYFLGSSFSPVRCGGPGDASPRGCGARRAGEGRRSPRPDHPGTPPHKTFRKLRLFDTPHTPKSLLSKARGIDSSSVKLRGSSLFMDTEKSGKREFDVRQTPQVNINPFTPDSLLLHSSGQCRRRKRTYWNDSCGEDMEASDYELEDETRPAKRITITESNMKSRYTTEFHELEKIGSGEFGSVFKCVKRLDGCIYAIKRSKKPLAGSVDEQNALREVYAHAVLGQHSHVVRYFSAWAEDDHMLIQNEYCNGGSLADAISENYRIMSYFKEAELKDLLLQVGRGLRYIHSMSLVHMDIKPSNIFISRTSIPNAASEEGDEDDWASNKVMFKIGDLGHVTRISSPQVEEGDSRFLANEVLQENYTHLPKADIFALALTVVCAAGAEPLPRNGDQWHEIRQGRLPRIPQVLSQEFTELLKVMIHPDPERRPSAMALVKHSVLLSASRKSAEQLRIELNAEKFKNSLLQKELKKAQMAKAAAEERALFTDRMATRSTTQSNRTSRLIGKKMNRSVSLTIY
T3 sequence (Q96SW2 whole entry): as the sequence (Q96SW2 whole entry) above
T3 sequence (Q16531 whole entry partner): as the sequence (Q16531 whole entry partner) above

CK1α = biological target: T4, CK1α (Homo sapiens, UniProt P48729+Q96SW2); assay: as above; assay type: cell-based; settings: Western blot, 24 hours of compound treatment, compounds tested at 50 nM and 500 nM (concentration for the table not stated)
T4 construct: effects of the compounds of the present disclosure on the expression of target proteins in cells; endogenous in cells; host or cells: human PBMCs (Milecell Biotechnologies)
T4 sequence (P48729 whole entry): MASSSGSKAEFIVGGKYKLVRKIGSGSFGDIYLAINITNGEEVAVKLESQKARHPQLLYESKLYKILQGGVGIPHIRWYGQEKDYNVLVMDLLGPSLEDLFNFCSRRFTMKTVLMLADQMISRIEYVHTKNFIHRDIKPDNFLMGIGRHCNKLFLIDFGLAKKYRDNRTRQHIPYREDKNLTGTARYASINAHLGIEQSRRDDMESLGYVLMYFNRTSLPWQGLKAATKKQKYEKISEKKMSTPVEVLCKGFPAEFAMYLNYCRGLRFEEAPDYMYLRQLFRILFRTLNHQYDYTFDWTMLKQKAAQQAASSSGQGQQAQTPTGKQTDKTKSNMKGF
T4 sequence (Q96SW2 whole entry): as the sequence (Q96SW2 whole entry) above
T4 sequence (Q16531 whole entry partner): as the sequence (Q16531 whole entry partner) above

IKZF3 = biological target: T5, IKZF3 (Homo sapiens, UniProt Q96SW2+Q9UKT9); assay: as above; assay type: cell-based; settings: Western blot, 24 hours of compound treatment, compounds tested at 50 nM and 500 nM (concentration for the table not stated)
T5 construct: effects of the compounds of the present disclosure on the expression of target proteins in cells; endogenous in cells; host or cells: human PBMCs (Milecell Biotechnologies)
T5 sequence (Q9UKT9 whole entry): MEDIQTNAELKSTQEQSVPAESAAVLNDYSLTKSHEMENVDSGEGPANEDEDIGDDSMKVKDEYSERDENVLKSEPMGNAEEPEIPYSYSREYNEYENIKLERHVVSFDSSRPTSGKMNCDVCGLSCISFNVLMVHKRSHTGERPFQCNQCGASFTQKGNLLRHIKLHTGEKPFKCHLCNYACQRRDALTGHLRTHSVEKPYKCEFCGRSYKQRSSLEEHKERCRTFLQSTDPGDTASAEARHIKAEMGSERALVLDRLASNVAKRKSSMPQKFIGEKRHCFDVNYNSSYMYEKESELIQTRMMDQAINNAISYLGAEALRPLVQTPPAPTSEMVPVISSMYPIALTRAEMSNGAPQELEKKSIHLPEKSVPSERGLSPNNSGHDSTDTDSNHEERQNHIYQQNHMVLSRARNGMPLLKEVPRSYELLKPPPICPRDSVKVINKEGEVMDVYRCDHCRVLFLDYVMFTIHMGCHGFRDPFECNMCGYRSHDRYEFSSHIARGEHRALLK
T5 sequence (Q96SW2 whole entry): as the sequence (Q96SW2 whole entry) above
T5 sequence (Q16531 whole entry partner): as the sequence (Q16531 whole entry partner) above

[2] = biological target: T6, human Cereblon WT GST-tagged protein (Homo sapiens, UniProt Q96SW2); assay: CRBN-binding affinity, HTRF (CEREBLON BINDING kit); settings: CRBN binding, HTRF, 3 hours at room temperature; read-out: HTRF IC50
T6 construct: purchased CISBIO 64BDCRBNPEH
T6 sequence (Q96SW2 whole entry): as the sequence (Q96SW2 whole entry) above

[3] = test system: Human multiple myeloma cell (MM.1S); assay: Tumor cell proliferation inhibition (CellTiter-Meiluncell luminescent cell viability assay); settings: Homo sapiens, MM1.S, 96 h, read-out: Inhibitory activity (IC50, nM) on tumor cell proliferation, MM.1S
[4] = test system: Human T lymphocytic leukemia cell line: Jurkat; assay: as above; settings: 96 h, read-out: Inhibitory activity (IC50, nM) on tumor cell proliferation, Jurkat
[5] = test system: Human mantle cell lymphoma cell line: JEKO-1; assay: as above; settings: JeKo-1, 96 h, read-out: Inhibitory activity (IC50, nM) on tumor cell proliferation, JEKO-1
Protocol: (§3) The tumor cells used herein were cultured in a cell culture medium listed in table 2 at 37°C in an incubator with 5% CO2. Prior to experimentation, all cell lines used were correctly identified by STR profiling, and tested negative for mycoplasma contamination using a mycoplasma detection kit through routine screenings.
as §1, §2

[6] = test system: Human non-small cell lung cancer cell line: NCI-H1975; assay: as above; settings: NCI-H1975, 96 h, read-out: Inhibitory activity (IC50, nM) on tumor cell proliferation, H1975
Protocol: as §3, §1, §2

[7] = test system: Human breast cancer cell (MCF-7); assay: as above; settings: MCF7, 96 h, read-out: Inhibitory activity (IC50, nM) on tumor cell proliferation, MCF7
Protocol: as §3, §1, §2

GSPT1 = assay: Western blot, degradation of substrate protein in hPBMCs; assay type: cell-based, Human; settings: Western blot, 24 hours of compound treatment, compounds tested at 50 nM and 500 nM (concentration for the table not stated)

IC50 [1]	IC50 [2]	IC50 [3]	IC50 [4]	IC50 [5]	IC50 [6]	IC50 [7]	SMILES	IKZF 1 substrate protein remaining % (IKZF1)	IKZF2 substrate protein remaining % (IKZF2)	Wee1 substrate protein remaining % (WEE1)	CK1α substrate protein remaining % (CK1α)	IKZF3 substrate protein remaining % (IKZF3)	GSPT1 substrate protein remaining % (GSPT1)
100 to 500 nM	0.1 to 0.5 µM	10 to 50 nM	50 to 100 nM	10 to 50 nM	50 to 100 nM	100 to 500 nM	O=C1CCC(N2Cc3cc(CN4CCN(c5cccc6sccc56)CC4)ccc3C2=S)C(=O)N1 (stereo not shown) [GT-05088, 3-(5-((4-(benzo[b]thiophen-4-yl)piperazin-1-yl)methyl)-1-thioxoisoindolin-2-yl)piperidine-2,6-dione]	A (0% ≤ substrate protein remaining % ≤ 80%)	A (0% ≤ substrate protein remaining % ≤ 80%)	A (0% ≤ substrate protein remaining % ≤ 80%)	B (80%< substrate protein remaining %≤ 100%)	A (0% ≤ substrate protein remaining % ≤ 80%)	A (0% ≤ substrate protein remaining % ≤ 80%)
100 to 500 nM	0.5 to 1 µM	10 to 50 nM	50 to 100 nM	10 to 50 nM	50 to 100 nM	100 to 500 nM	Cc1ccc(Sc2ccccc2N2CCN(Cc3ccc4c(c3)CN(C3CCC(=O)NC3=O)C4=S)CC2)c(C)c1 (stereo not shown) [GT-05092, 3-(5-((4-(2-((2,4-dimethylphenyl)thio)phenyl)piperazin-1-yl)methyl)-1-thioxoisoindolin-2-yl)piperidine-2,6-dione]	A (0% ≤ substrate protein remaining % ≤ 80%)	A (0% ≤ substrate protein remaining % ≤ 80%)	A (0% ≤ substrate protein remaining % ≤ 80%)	B (80%< substrate protein remaining %≤ 100%)	A (0% ≤ substrate protein remaining % ≤ 80%)	A (0% ≤ substrate protein remaining % ≤ 80%)
10 to 50 nM	0.5 to 1 µM	< 5 nM	< 5 nM	5 to 10 nM	5 to 10 nM	10 to 50 nM	O=C1CCC(N2Cc3cc(CN4CCC(Nc5ccccc5-c5ccc(Cl)cc5)CC4)ccc3C2=S)C(=O)N1 (stereo not shown) [GT-05109, 3-(5-((4-((4'-chloro-[1,1'-biphenyl]-2-yl)amino)piperidin-1-yl)methyl)-1-thioxoisoindolin-2-yl)piperidine-2,6-dione]	A (0% ≤ substrate protein remaining % ≤ 80%)	A (0% ≤ substrate protein remaining % ≤ 80%)	A (0% ≤ substrate protein remaining % ≤ 80%)	A (0% ≤ substrate protein remaining % ≤ 80%)	A (0% ≤ substrate protein remaining % ≤ 80%)	A (0% ≤ substrate protein remaining % ≤ 80%)

SMILES	IC50 [1]	IC50 [2]	IC50 [3]	IC50 [4]	IC50 [5]	IC50 [6]	IC50 [7]	IKZF 1 substrate protein remaining % (IKZF1)	IKZF2 substrate protein remaining % (IKZF2)	Wee1 substrate protein remaining % (WEE1)	CK1α substrate protein remaining % (CK1α)	IKZF3 substrate protein remaining % (IKZF3)	GSPT1 substrate protein remaining % (GSPT1)
Cc1ccc(C2=CCN(Cc3ccc4c(c3)CN(C3CCC(=O)NC3=O)C4=S)CC2)s1 (stereo not shown) [GT-05111, 3-(5-((4-(5-methylthiophen-2-yl)-3,6-dihydropyridin-1(2H)-yl)methyl)-1-thioxoisoindolin-2-yl)piperidine-2,6-dione]	100 to 500 nM	0.1 to 0.5 µM	10 to 50 nM	50 to 100 nM	50 to 100 nM	50 to 100 nM	100 to 500 nM	A (0% ≤ substrate protein remaining % ≤ 80%)	A (0% ≤ substrate protein remaining % ≤ 80%)	A (0% ≤ substrate protein remaining % ≤ 80%)	A (0% ≤ substrate protein remaining % ≤ 80%)	A (0% ≤ substrate protein remaining % ≤ 80%)	A (0% ≤ substrate protein remaining % ≤ 80%)
